Where two headings read alike, the source gives them in different places.
Key:
[1] = molecular target: T1, GPR40 (Homo sapiens, UniProt O14842); experiment: Intracellular Ca2+ flux fluorescent assay (FLIPR); format: cell-based
T1 construct: host or cells: HEK293 (ChemiBrite cell line)
Experimental: To determine the EC50 of the compounds on intracellular Ca^2+ flux using a fluorescent assay (FLIPR)
GPR40 expressing stable cells were seeded at 25,000 numbers/well. 50 μL/well of assay buffer (20 mM HEPES+1×HBSS) was added to the cells and the cells were cultured for 20 min at 37° C. Cells were loaded with 50 μL/well of Calcium 5 dye and cultured for 45 min at 37° C.
The cells were challenged with compounds at a top concentration of 1000 nM (1:3 step down dilution—10 points). Intracellular Calcium flux was assessed by use of Screen Works 3.1 tool and statistical analysis was carried using Graph Pad Prism 4

[2] = molecular target: T1, GPR40; experiment: Promoter-luciferase assay to measure GPR40 activation (HEK293 cells stably transfected with GPR40 cDNA); format: cell-based; settings: HEK293 cells stably transfected with GPR40, 5xSRE-luciferase
Experimental: GPR40 activation was measured in HEK293 cells stably transfected with GPR40 cDNA (ChemiBrite cell lines from Millipore, US). These cells were transiently transfected with a pGL2 (Promega Inc.) plasmid having a 5×SRE sequence, cloned 5′ of a luciferase gene along with a β-galactosidase plasmid as normalizing control. Briefly, 35000 cells/well were seeded in a 96 well plates. After overnight incubation at 37° C., the cells were washed with PBS and transfected with the 5×-SRE-Luciferase plasmid and the β-galactosidase plasmid. 6 h post transfection, media was removed and replaced with fresh media with different concentration of drugs and incubated for 16 more hours. The cells were then lysed in 50 μL of Glo-Lysis buffer (Promega) for 30 min at room temperature. The cells were then centrifuged and lysates were collected. Luciferase activity was measured by adding 100 μL of luciferase substrate (Promega) in 20 μL of lysate and measuring the luminescence in luminometer. The […] activity was also measured by adding 20 μL of lysates with 20 μL of β-galactosidase buffer (Promega) and monitoring the absorbance at 415 nm. Luciferase values were divided by β-galactosidase values to normalize transfection efficiency (Table 2)

[3] = test system: n-STZ rat model; experiment: Oral glucose tolerance test in n-STZ rat model; format: in vivo, Wistar rat; settings: for % improvement in AUC glucose vs. control: n-STZ rat; for ED50: po, n-STZ rat OGTT model
Experimental: Primary Screening Protocol for GRP40 agonist test compounds in n-STZ rat model
Wistar rat pups of 1-2 day old injected with Streptozotocin (STZ) at 120 mg/kg dose by intraperitoneal route. All pups allowed grow normally and at the age of 12-14 week they were screen for glucose intolerance by performing the oral glucose tolerance test by tail clip method using glucometer. Animals showing glucose intolerance were selected for evaluation of test compound. Three to seven days of rest period animals were kept on overnight fasting. […] Animals were administered with test compound and then 15-60 min after the compound administration “O” min blood glucose levels were measured and immediately glucose load at 2 g/kg was administered orally. Blood glucose levels were measured at 30, 60 and 120 min after glucose load using by tail clip method using glucometer. Blood was also collected at 10 min after glucose load for measurement of insulin levels. Glucose area under the curve (AUC) was calculated using Graph Pad Prism software and % reduction in AUC-glucose vs vehicle treated control was calculated (Table 3).

[4] = Pharmacokinetics in rats; settings: rat, in vivo; for MRT: read-out: Mean residence time; for Vd: read-out: Vss; for bioavailability: po 3 mg/Kg vs iv 1 mg/Kg
[5] = GPR40 expressing stable cells, intracellular Ca2+ flux, read-out: EC50 in FLIPR assay
[6] = read-out: EC50 in Luciferase assay
[7] = iv 1 mg/Kg, read-out: T1/2, iv (converted)
[8] = po 3 mg/Kg, read-out: T1/2, po (converted)

T1 sequence (O14842 whole entry, species assumed): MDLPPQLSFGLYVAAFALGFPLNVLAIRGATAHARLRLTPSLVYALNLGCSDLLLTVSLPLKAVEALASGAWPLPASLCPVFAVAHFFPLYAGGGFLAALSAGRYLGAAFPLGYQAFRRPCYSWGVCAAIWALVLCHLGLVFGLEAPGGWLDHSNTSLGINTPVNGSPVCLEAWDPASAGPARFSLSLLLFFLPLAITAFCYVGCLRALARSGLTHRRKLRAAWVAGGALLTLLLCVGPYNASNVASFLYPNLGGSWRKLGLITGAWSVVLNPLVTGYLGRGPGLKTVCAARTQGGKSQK

CC#C[C@@H](CC(=O)O)c1ccc(OCc2cccc(CN3CCc4sccc4C3)c2)cc1 [Compound 1, (S)-3-(4-((3-((6,7-dihydrothieno[3,2-c]pyridin-5(4H)yl)methyl)benzyl)oxy)phenyl)hex-4-ynoic acid]
EC50 [1, 5]: 117 nM | EC50 [2, 6]: 7.5 nM

CC#C[C@@H](CC(=O)O)c1ccc(OCc2cccc(CN3CCc4sc(C)cc4C3)c2)cc1 [Compound 7, (S)-3-(4-((3-((2-methyl-6,7-dihydrothieno[3,2-c]pyridin-5(4H)-yl)methyl)benzyl)oxy)phenyl)hex-4-ynoic acid]
EC50 [1, 5]: 1.8 nM | % improvement in AUC glucose vs. control ([3]; 0.1 mg/Kg per oral): 30.4% | % improvement in AUC glucose vs. control ([3]; 1 mg/Kg per oral): 46.0% | % improvement in AUC glucose vs. control ([3]; 10 mg/Kg per oral): 57.0% | EC50 [2, 6]: 1.49 nM

CC#C[C@@H](CC(=O)O)c1ccc(OCc2cccc(CN3CCc4nc(C)sc4C3)c2)cc1 [Compound 10, (S)-3-(4-((3-((2-methyl-6,7-dihydrothiazolo[5,4-c]pyridin-5(4H)-yl)methyl)benzyl)oxy)phenyl)hex-4-ynoic acid]
% improvement in AUC glucose vs. control ([3]; 0.1 mg/Kg per oral): 21.1% | % improvement in AUC glucose vs. control ([3]; 1 mg/Kg per oral): 35.7% | % improvement in AUC glucose vs. control ([3]; 10 mg/Kg per oral): 45.0% | EC50 [2, 6]: 16.9 nM

CC#C[C@@H](CC(=O)[O][Ca][O]C(=O)C[C@H](C#CC)c1ccc(OCc2cccc(CN3CCc4sc(C)cc4C3)c2)cc1)c1ccc(OCc2cccc(CN3CCc4sc(C)cc4C3)c2)cc1 [Compound 16, calcium(S)-3-(4-((3-((2-methyl-6,7-dihydrothieno[3,2-c]pyridin-5(4H)-yl)methyl)benzyl)oxy)phenyl)hex-4-ynoate(S)-3-(4-((3-((2-methyl-6,7-dihydrothieno[3,2-c]pyridin-5(4H)-yl)methyl)benzyl)oxy)phenyl)hex-4-ynoate]
EC50 [1]: 2.72 nM | % improvement in AUC glucose vs. control ([3]; 1 mg/Kg per oral): 44.6% | % improvement in AUC glucose vs. control ([3]; 10 mg/Kg per oral): 59.6% | ED50 [3]: 0.05 mg/kg | AUC(0-t) ([4]; iv 1 mg/Kg): 3180 ± 400 ng·h/mL | C0 ([4]; iv 1 mg/Kg): 5020 ± 370 ng/mL | clearance ([4]; iv 1 mg/Kg): 5.26 ± 0.65 mL/min/kg | MRT ([4]; iv 1 mg/Kg): 1.09 ± 0.07 h | half-life [4, 7]: 1.45 ± 0.12 h | Vd ([4]; iv 1 mg/Kg): 0.34 ± 0.03 L/kg | Cmax ([4]; po 3 mg/Kg): 5920 ± 2100 ng/mL | Tmax ([4]; po 3 mg/Kg): 0.25 h | bioavailability [4]: 83% | MRT ([4]; po 3 mg/Kg): 2.19 ± 0.31 h | half-life [4, 8]: 1.77 ± 0.42 h | EC50 ([2]; EC50 in Luciferase assay): 4.6 nM

CC#C[C@@H](CC(=O)[O][Ca][O]C(=O)C[C@H](C#CC)c1ccc(OCc2cccc(CN3CCc4nc(C)sc4C3)c2)cc1)c1ccc(OCc2cccc(CN3CCc4nc(C)sc4C3)c2)cc1 [Compound 17, calcium (S)-3-(4-((3-((2-methyl-6,7-dihydrothiazolo[4,5-c]pyridin-5(4H)-yl)methyl)benzyl)oxy)phenyl)hex-4-ynoate(S)-3-(4-((3-((2-methyl-6,7-dihydrothiazolo[4,5-c]pyridin-5(4H)-yl)methyl)benzyl)oxy)phenyl)hex-4-ynoate]
EC50 [1]: 10.2 nM | % improvement in AUC glucose vs. control ([3]; 1 mg/Kg per oral): 37.1% | % improvement in AUC glucose vs. control ([3]; 10 mg/Kg per oral): 44.7% | EC50 ([2]; EC50 in Luciferase assay): 4.7 nM

CC#C[C@@H](CC(=O)O)c1ccc(OCc2cccc(CN3CCc4sc(Br)cc4C3)c2)cc1 [Compound 19, Calcium (S)-3-(4-((3-((2-bromo-6,7-dihydrothieno[3,2-c]pyridin-5(4H)-yl)methyl)benzyl)oxy)phenyl)hex-4-ynoate]
EC50 [1, 5]: 2.32 nM

CC#C[C@@H](CC(=O)O)c1ccc(OCc2cccc(CN3Cc4cnn(C)c4C3)c2)cc1 [Compound 22, (S)-3-(4-((3-((1-Methylpyrrolo[3,4-c]pyrazol-5(1H,4H,6H)-yl)methyl)benzyl)oxy)phenyl)hex-4-ynoic acid]
EC50 [1, 5]: 36.3 nM | EC50 [2, 6]: 31.5 nM

CC#C[C@@H](CC(=O)[O][Ca][O]C(=O)C[C@H](C#CC)c1ccc(OCc2cccc(CN3CCc4nc(Cl)sc4C3)c2)cc1)c1ccc(OCc2cccc(CN3CCc4nc(Cl)sc4C3)c2)cc1 [Compound 60, Calcium (S)-3-(4-((3-((2-chloro-6,7-dihydrothiazolo[5,4-c]pyridin-5(4H)-yl)methyl)benzyl)oxy)phenyl)hex-4-ynoate]
% improvement in AUC glucose vs. control ([3]; 1 mg/Kg per oral): 44% | % improvement in AUC glucose vs. control ([3]; 10 mg/Kg per oral): 47% | ED50 [3]: 0.04 mg/kg | AUC(0-t) ([4]; iv 1 mg/Kg): 18600 ± 2170 ng·h/mL | C0 ([4]; iv 1 mg/Kg): 3390 ± 330 ng/mL | clearance ([4]; iv 1 mg/Kg): 0.89 ± 0.1 mL/min/kg | MRT ([4]; iv 1 mg/Kg): 6.28 ± 0.77 h | half-life [4, 7]: 5.57 ± 1.46 h | Vd ([4]; iv 1 mg/Kg): 0.33 ± 0.01 L/kg | Cmax ([4]; po 3 mg/Kg): 7770 ± 1940 ng/mL | Tmax ([4]; po 3 mg/Kg): 1 h | bioavailability [4]: 93% | MRT ([4]; po 3 mg/Kg): 5.74 ± 0.1 h | half-life [4, 8]: 5.45 ± 0.79 h | EC50 ([2]; EC50 in Luciferase assay): 5.6 nM

CC#C[C@@H](CC(=O)[O][Ca][O]C(=O)C[C@H](C#CC)c1ccc(OCc2cccc(CN3CCc4oc(C5CC5)nc4C3)c2)cc1)c1ccc(OCc2cccc(CN3CCc4oc(C5CC5)nc4C3)c2)cc1 [Compound 64, Calcium (S)-3-(4-((3-((2-cyclopropyl-6,7-dihydrooxazolo[4,5-c]pyridin-5(4H)-yl)methyl)benzyl)oxy)phenyl)hex-4-ynoate]
% improvement in AUC glucose vs. control ([3]; 1 mg/Kg per oral): 46% | % improvement in AUC glucose vs. control ([3]; 10 mg/Kg per oral): 47% | ED50 [3]: 0.09 mg/kg | AUC(0-t) ([4]; iv 1 mg/Kg): 56100 ± 4350 ng·h/mL | C0 ([4]; iv 1 mg/Kg): 10200 ± 1540 ng/mL | clearance ([4]; iv 1 mg/Kg): 0.27 ± 0.03 mL/min/kg | MRT ([4]; iv 1 mg/Kg): 10.1 ± 1.36 h | half-life [4, 7]: 7.77 ± 1.07 h | Vd ([4]; iv 1 mg/Kg): 0.16 ± 0.01 L/kg | Cmax ([4]; po 3 mg/Kg): 8060 ± 2190 ng/mL | Tmax ([4]; po 3 mg/Kg): 2 h | bioavailability [4]: 45% | MRT ([4]; po 3 mg/Kg): 6.59 ± 0.93 h | half-life [4, 8]: 4.51 ± 0.61 h | EC50 ([2]; EC50 in Luciferase assay): 1.2 nM

CC#C[C@@H](CC(=O)O)c1ccc(OCc2cccc(CN3CCc4sc(C5CC5)cc4C3)c2)cc1 [Compound 69, (S)-3-(4-((3-((2-Cyclopropyl-6,7-dihydrothieno[3,2-c]pyridin-5(4H)-yl)methyl)benzyl)oxy)phenyl)hex-4-ynoic acid compound with 2,2,2-trifluoroacetic acid]
EC50 [2, 6]: 0.8 nM

CC#C[C@@H](CC(=O)O)c1ccc(OCc2cccc(CN3CCc4sc(CC)cc4C3)c2)cc1 [Compound 71, (S)-3-(4-((3-((2-Ethyl-6,7-dihydrothieno[3,2-c]pyridin-5(4H)-yl)methyl)benzyl)oxy)phenyl)hex-4-ynoic acid]
EC50 [2, 6]: 0.4 nM

CC#C[C@@H](CC(=O)O)c1ccc(OCc2cccc(CN3CCc4sc(C(C)=O)cc4C3)c2)cc1 [Compound 72, (S)-3-(4-((3-((2-Acetyl-6,7-dihydrothieno[3,2-c]pyridin-5(4H)-yl)methyl)benzyl)oxy)phenyl)hex-4-ynoic acid]
EC50 [2, 6]: 2.3 nM

Reference: US10011609B2, “Heterocyclic compounds” (CADILA HEALTHCARE LIMITED, priority 2013, dated 2018)
